Assay results taken from US20090221538A1, “METHODS OF TREATING MULTIPLE SCLEROSIS BY ADMINISTERING PULSE DOSE CALCITRIOL” (priority 2008, published 2009).
Where “and” joins values, the source holds several entries; their conditions need not be identical. Equal values may be shown once. Marks after values point to notes of the source that are not given here.

Key:
[1] = test system: B10.PL mice with acute EAE; assay: Treatment of MBP-induced acute EAE in B10.PL mice, daily clinical EAE disability score; type: in vivo; parameters: key to cumulative disability (sum of daily disability scores; mean) / Cumulative disability / EAE severity (initial) / Remission (minimum) / EAE severity (final) / EAE severity (decrease): EAE score 0 = normal to 5 = moribund; cumulative = sum of daily scores; settings: for EAE severity (initial): score at randomization
Experimental: Breeding pairs of B10.PL-H2^uH2-T18^a/(73NS)/SnJ (hereafter B10.PL) mice were purchased from the Jackson Laboratory (Bar Harbor, Me.). The experimental B10.PL mice were either bred in the pathogen-free mouse colony at the University of Wisconsin Department of Biochemistry, or purchased from the Jackson Laboratory. Mice were housed at 23° C. with 40-60% humidity, 12 hr light-dark cycles, and ad libidum access to water. Unless stated otherwise, the mice were fed Lab Diet #5008 (PMI Nutrition International, Inc., Brentwood, Mo.) containing 0.33 μg/d vitamin D3 and 1% calcium. Experiments used male and female mice aged 6-8 wks (age- and sex-matched within experiments). The University of Wisconsin College of Agricultural and Life Sciences Institutional Animal Care and Use Committee approved all of the experimental protocols.
Bovine myelin basic protein (Sigma Chemical Co., St. Louis, Mo.) was dissolved at 2 mg/mL in 0.1 N acetic acid and emulsified with Complete Freund's adjuvant containing heat-killed Mycobacterium tuberculosis H37 Ra solution (Difco). Each mouse was injected subcutaneously with 0.1 mL emulsion in each hind flank (400 micrograms of MBP per mouse). On the day of immunization and again 2 days later, 200 nanograms of pertussis toxin was injected into the peritoneum. Thereafter, clinical EAE signs were scored daily as follows: 0, normal; 1, limp tail; 1.5, partial paralysis of one hind limb; 2, partial paralysis of both hind limbs; 2.5 partial paralysis of one hind limb and complete paralysis of one hind limb; 3, paralysis of both hind limbs; 4, hind and fore limb paralysis; 5, moribund.
(§1) The vitamin D3 and 1,25-(OH)2D3 were obtained from Sigma Chemical Co. The vitamin D3 was dissolved in safflower oil and stored in the dark at 5° C. The 1,25-(OH)2D3 was dissolved in 100% ethanol (1 mg/mL) and stored in the dark under nitrogen gas at −20° C. The concentration of 1,25-(OH)2D3 was determined by spectral analysis. Animals with stage 2.3±0.3 were randomized into treatment groups. The details of the treatments are given in the figure legends and table footnotes. The synthetic diet used in some experiments was formulated to contain all essential nutrients except vitamin D3 and was prepared exactly as we described (Spach and Hayes, 2005, J. Immunol. 175:4119-4126). For experiments using supplementary vitamin D3, the placebo group was fed the synthetic diet ad libidum without added vitamin D3, whereas the vitamin D3-supplemented group was fed the synthetic diet ad libidum with vitamin D3 added in an amount to provide 1 μg/d, calculated based on a daily measured consumption of 4.0 g dry weight of diet per mouse. Fresh synthetic diet was provided three times per week. At several times during the study, mice were weighed and blood samples were obtained from the tail vein. At the conclusion of the study, the mice were euthanized, a blood sample was obtained, perfusion was done, and the spinal cords and optic nerves were removed. The spinal cords were flash frozen with liquid nitrogen and stored at −70° C. prior to 1,25-(OH)2D3 extraction. Alternatively, the spinal cords were divided into 6 equal sections, aligned vertically, snap frozen in O.C.T. compound (Sakura Finetek USA, Torrance, Calif.) and stored at −70° C. for histopathology. The blood was clotted, centrifuged, and the decanted serum was frozen at −70° C. prior to analysis.
Individual mice were analyzed and the mean and SD were calculated for each group of mice. Experiments were repeated at least once. The significance of differences between the group means was determined using the Mann-Whitney test (n≦16), Student's t-test (n>16), or Chi-squared test (binomial data); p<0.05 was considered significant.

[2] = Spinal cord 1,25-(OH)2D3 extraction and radioimmunoassay; type: in vivo, mouse; settings: 200 ng 1,25-(OH)2D3 pulse dose plus vitamin D3 supplementation; end of the study
Experimental: as §1, with “The spinal cords were flash frozen with liquid nitrogen and stored at −70° C. prior to 1,25-(OH)2D3 extraction. Alternatively, the spinal cords were divided into 6 equal sections, aligned vertically, snap frozen in O.C.T. compound (Sakura Finetek USA, Torrance, Calif.) and stored at −70° C. for histopathology. The blood was clotted, centrifuged, and the decanted serum was frozen at −70° C. prior to analysis.” left out

[3] = female B10.PL mice, chow-fed, 20 ng pulse dose, 14 days post treatment
[4] = female B10.PL mice, chow-fed, 200 ng injected once each week, 21 days
[5] = female B10.PL mice, chow-fed, 200 ng injected once, 21 days post treatment
[6] = female B10.PL mice, chow-fed, 200 ng pulse dose, 14 days post treatment
[7] = female B10.PL mice, chow-fed, 400 ng pulse dose, 14 days post treatment
[8] = female and male B10.PL mice, chow-fed, 0.5 (female) or 1.0 (male) nmol injected once, 14 days post treatment
[9] = male B10.PL mice, chow-fed, 20 ng pulse dose, 14 days post treatment
[10] = male B10.PL mice, chow-fed, 40 ng pulse dose, 14 days post treatment
[11] = male B10.PL mice, chow-fed, 200 ng pulse dose, 14 days post treatment
[12] = male B10.PL mice, chow-fed, 400 ng pulse dose, 14 days post treatment
[13] = male and female B10.PL mice, 200 ng 1,25-(OH)2D3 injected, 5 μg vitamin D3 gavage 24 hr later, diet 1 μg/d vitamin D3
[14] = methyl-prednisolone 200 μg/d followed by one 1,25-(OH)2D3 treatment, 28-day observation period

SMILES: C=C1/C(=C\C=C2/CCC[C@]3(C)[C@@H]([C@H](C)CCCC(C)(C)O)CC[C@@H]23)C[C@@H](O)C[C@@H]1O [1,25-(OH)2D3, 1,25-dihydroxy vitamin D3]
- relative potency for the treatment of acute EAE disability ([1]; 0.5 nmol (females) or 1.0 nmol (males), compared with methyl-prednisolone): far superior to methyl-prednisolone
- reduction of cumulative disability ([1]; 200 ng 1,25-(OH)2D3 pulse dose plus vitamin D3 (serum 25-(OH)D3 82±27), 42 day observation period): 48%
- cumulative disability lower than the placebo group ([1]; chow-fed mice with acute EAE, weekly injections of 200 ng): 43%
- EAE severity (decrease) [1, 3]: 0.5 ± 1.0
- EAE severity (final) [1, 3]: 1.6 ± 1.0
- Remission (%) [1, 3]: 75%
- Remission (days in) [1, 3]: 8.0 ± 6.3 days
- Remission (days to) [1, 3]: 2.0 ± 0.0 days
- EAE severity (initial) ([1]; female B10.PL mice, chow-fed, 20 ng pulse dose): 2.1 ± 0.1
- Cumulative disability ([1]; female B10.PL mice, chow-fed, 20 ng pulse dose, sum of daily scores for 14 days): 22.1 ± 9.0
- EAE severity (peak) [1, 4]: 2.4 ± 0.4
- Remission [1, 4]: 15.7 ± 3.4 days
- Remission (%) [1, 4]: 100%
- Remission (minimum) [1, 4]: 1.0 ± 0.0
- EAE severity (initial) ([1]; female B10.PL mice, chow-fed, 200 ng injected once each week): 2.3 ± 0.5
- Cumulative disability ([1]; female B10.PL mice, chow-fed, 200 ng injected once each week, sum of daily scores for 21 days): 31.6 ± 5.1
- EAE severity (peak) [1, 5]: 2.7 ± 0.4
- Remission [1, 5]: 13.4 ± 3.9 days
- Remission (minimum) [1, 5]: 1.0 ± 0.4
- Remission (%) ([1]; female B10.PL mice, chow-fed, 200 ng injected once, 21 days post treatment, remission = score ≦1.5 for two or more consecutive days): 100%
- EAE severity (initial) ([1]; female B10.PL mice, chow-fed, 200 ng injected once): 2.6 ± 0.4
- Cumulative disability ([1]; female B10.PL mice, chow-fed, 200 ng injected once, sum of daily clinical scores for 21 days): 32.9 ± 9.3
- EAE severity (decrease) [1, 6]: 1.6 ± 0.4
- EAE severity (final) [1, 6]: 1.0 ± 0.4
- Remission (%) [1, 6]: 100%
- Remission (days in) [1, 6]: 9.2 ± 2.5 days
- Remission (days to) [1, 6]: 5.8 ± 2.5 days
- EAE severity (initial) ([1]; female B10.PL mice, chow-fed, 200 ng pulse dose): 2.6 ± 0.4
- Cumulative disability ([1]; female B10.PL mice, chow-fed, 200 ng pulse dose, sum of daily scores for 14 days): 21.8 ± 4.6
- EAE severity (decrease) [1, 7]: 1.2 ± 0.2
- EAE severity (final) [1, 7]: 1.0 ± 0.0
- Remission (%) [1, 7]: 100%
- Remission (days in) [1, 7]: 9.6 ± 3.0 days
- Remission (days to) [1, 7]: 6.2 ± 3.3 days
- EAE severity (initial) ([1]; female B10.PL mice, chow-fed, 400 ng pulse dose): 2.2 ± 0.2
- Cumulative disability ([1]; female B10.PL mice, chow-fed, 400 ng pulse dose, sum of daily scores for 14 days): 20.6 ± 5.2
- Cumulative disability [1, 8]: 19.7 ± 4.4
- EAE severity (decrease) [1, 8]: 1.2 ± 0.6
- Remission (%) [1, 8]: 92%
- Remission (days in) [1, 8]: 10.0 ± 2.2 days
- Remission (days to) [1, 8]: 4.9 ± 2.2 days
- EAE severity (initial) ([1]; female and male B10.PL mice, chow-fed, 0.5 (female) or 1.0 (male) nmol of steroid compound injected once): 2.3 ± 0.4
- effectiveness for the treatment of EAE ([1]; female mice, chow-fed, 20 ng pulse dose): partially effective
- remission lasted an average of, before a relapse occurred ([1]; female mice, chow-fed, 200 ng pulse dose): 14 days
- mice that achieved a remission (EAE≦1.5 for at least two consecutive days) ([1]; female mice, chow-fed, 200 ng pulse dose, within 6 days): 100%
- EAE severity (decrease) [1, 9]: 0.7 ± 0.4
- EAE severity (final) [1, 9]: 1.4 ± 0.5
- Remission (%) [1, 9]: 80%
- Remission (days in) [1, 9]: 6.6 ± 4.6 days
- Remission (days to) [1, 9]: 6.3 ± 2.2 days
- EAE severity (initial) ([1]; male B10.PL mice, chow-fed, 20 ng pulse dose): 2.1 ± 0.2
- Cumulative disability ([1]; male B10.PL mice, chow-fed, 20 ng pulse dose, sum of daily scores for 14 days): 24.2 ± 6.2
- EAE severity (decrease) [1, 10]: 0.5 ± 1.2
- EAE severity (final) [1, 10]: 1.7 ± 1.0
- Remission (%) [1, 10]: 80%
- Remission (days in) [1, 10]: 8.0 ± 4.6 days
- Remission (days to) [1, 10]: 4.5 ± 1.7 days
- EAE severity (initial) ([1]; male B10.PL mice, chow-fed, 40 ng pulse dose): 2.2 ± 0.4
- Cumulative disability ([1]; male B10.PL mice, chow-fed, 40 ng pulse dose, sum of daily scores for 14 days): 25.0 ± 9.0
- EAE severity (decrease) [1, 11]: 1.0 ± 0.4
- EAE severity (final) [1, 11]: 1.3 ± 0.4
- Remission (%) [1, 11]: 100%
- Remission (days in) [1, 11]: 11.9 ± 2.0 days
- Remission (days to) [1, 11]: 6.3 ± 2.4 days
- EAE severity (initial) ([1]; male B10.PL mice, chow-fed, 200 ng pulse dose): 2.3 ± 0.3
- Cumulative disability ([1]; male B10.PL mice, chow-fed, 200 ng pulse dose, sum of daily scores for 14 days): 22.1 ± 3.5
- EAE severity (decrease) [1, 12]: 1.2 ± 0.2
- EAE severity (final) [1, 12]: 0.8 ± 0.3
- Remission (%) [1, 12]: 86%
- Remission (days in) [1, 12]: 11.0 ± 1.4 days
- Remission (days to) [1, 12]: 4.2 ± 1.7 days
- EAE severity (initial) ([1]; male B10.PL mice, chow-fed, 400 ng pulse dose): 2.1 ± 0.4
- Cumulative disability ([1]; male B10.PL mice, chow-fed, 400 ng pulse dose, sum of daily scores for 14 days): 16.9 ± 2.5
- Remission [1, 13]: 36 ± 6 days
- Remission (%) [1, 13]: 100* %
- mortality [1, 13]: 0%
- Cumulative disability ([1]; male and female B10.PL mice, 200 ng 1,25-(OH)2D3 injected, 5 μg vitamin D3 gavage, diet 1 μg/d vitamin D3, sum of daily scores for first 42 days post treatment): 50 ± 14
- Cumulative disability [1, 14]: 36±10
- reduction of cumulative disability vs placebo group [1, 14]: 42%
- amelioration of EAE disease ([1]; mice with normal serum 25-(OH)D3 levels, 200 ng pulse dose in females and 400 ng pulse dose in males): optimally ameliorated EAE disease
- mice that did not relapse ([1]; one 1,25-(OH)2D3 treatment (females 200 ng; males 400 ng) after withdrawal of 200 μg/d methyl-prednisolone, 28-day observation period): 4 of 6
- days in remission before relapse (remaining two mice) ([1]; one 1,25-(OH)2D3 treatment (females 200 ng; males 400 ng) after withdrawal of methyl-prednisolone): 14 days and 23 days
- 1,25-(OH)3D3 in the spinal cord [2]: 18.8 ± 6.6 pmol/mL
